The text below walks through data of patent EP3749673B1, “CRYSTALLINE FORM OF BICTEGRAVIR SODIUM” (Sandoz AG, priority 2018, dated 2019).

What all share (assay type): physicochemical
Data set [1] in a line: Initial dissolution behaviour (dissolution rate), about 100 mg suspended in 10 ml solvent, filtrate analysed by HPLC. To be noted: 24°C, stirring time 1 minute, approx. 100mg in 10ml. The protocol: The initial dissolution behavior of bictegravir sodium form II was compared with bictegravir sodium form I. Approximately 100mg Bictegravir-Na (Form I or Form II) were suspended at 24°C in 10ml solvent. Two different solvents were used for the study: 0,1M aqueous HCl solution and a phosphate buffer system (pH6,8; prepared according to "Küster Thiel - Rechentafeln dür die chemische Analytik").
After a stirring time of 1 minute a sample was taken and filtered throw a syringe filter. The received clear filtrate was analyzed by HPLC to determine the Bictegravir content. The HPLC-column was a YMC-Pack Pro C18 RS (150mm x 4.6mm) operated at 0.8 ml/min. Detection was at a wavelength of 254 nm. Mobile phases were sulfamic acid in water and acetonitrile, respectively, and were used as components of the gradient.

The nature of data set [2]: Differential scanning calorimetry, resistance to temperature stress (solid-solid phase transition). To be noted: DSC, heating rate 10 K/min, 25 to 400 °C. The protocol: Bictegravir sodium Form II was investigated by DSC, which was performed on a Mettler Polymer DSC R instrument. The sample (3.77 mg) was heated in a 40 microliter aluminium pan with a pierced aluminium lid from 25 to 400 °C at a rate of 10 K/min. Nitrogen (purge rate 50 mL/min) was used as purge gas.
Background: In DSC, transitions show as peaks or steps in heat flow.

Data set [3] can be described thus: Storage stability (polymorphic stability determined by XRPD). As to conditions: stored at 40°C/75% rh. The protocol:
Thus bictegravir sodium form II is a storage stable (polymorphically stable as determined by XRPD for at least 1 month when stored at 40°C/75% rh) fast-dissolving crystalline form of bictegravir sodium with unexpected advantages over bictegravir sodium form I.

In the case of `O=C(NCc1c(F)cc(F)cc1F)c1cn2c(c(O)c1=O)C(=O)N1C3CCC(C3)OC1C2` (centres unmarked) [bictegravir sodium form II, bictegravir sodium], the results for the “amount dissolved after 1 minute” value in data set [1] (0.1M HCl) and in data set [1] (pH6.8 phosphate buffer system) were 0.220 mg/mL and 0.186 mg/mL, respectively. The “onset temperature of exothermic peak (solid-solid phase transition from Form II to Form I)” value in data set [2] is “about 313 °C”. In data set [2], the “peak temperature of exothermic peak (solid-solid phase transition from Form II to Form I)” value was “about 320 °C”. In data set [3], the “polymorphically stable as determined by XRPD (storage time)” value was “at least 1 month”.
As for `O=C(NCc1c(F)cc(F)cc1F)c1cn2c(c(O)c1=O)C(=O)N1C3CCC(C3)OC1C2` (centres unmarked) [bictegravir sodium form I, bictegravir sodium], the entries for the “amount dissolved after 1 minute” value in data set [1] (0.1M HCl) and in data set [1] (pH6.8 phosphate buffer system) were 0.085 mg/mL and 0.059 mg/mL, respectively. For the same compound, the “temperature at which decomposition starts” value in data set [2] (Form I formed in situ from Form II) is “about 370 °C”.
